38 compounds from patent US7897619B2, “Heterocyclic modulators of PKB” (Amgen Inc., priority 2007, dated 2011) can be followed below.

For orientation: IC50 means the concentration that inhibits the measured activity by half. The low end stands for greater potency in that assay, the high end for weaker potency in that assay.

PKBα, sequence (P31749 118-480 limits assumed): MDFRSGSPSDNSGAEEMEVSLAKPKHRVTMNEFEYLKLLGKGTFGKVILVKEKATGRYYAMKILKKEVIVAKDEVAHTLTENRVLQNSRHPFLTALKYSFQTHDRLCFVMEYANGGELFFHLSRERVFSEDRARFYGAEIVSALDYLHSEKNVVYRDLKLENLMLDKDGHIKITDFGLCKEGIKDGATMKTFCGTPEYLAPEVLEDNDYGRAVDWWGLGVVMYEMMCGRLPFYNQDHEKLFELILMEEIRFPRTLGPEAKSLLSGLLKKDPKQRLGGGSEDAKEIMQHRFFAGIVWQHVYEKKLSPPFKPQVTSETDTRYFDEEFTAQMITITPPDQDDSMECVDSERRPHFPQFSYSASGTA

This assay concerns the target PKBα (Homo sapiens, UniProt P31749). Nature of the assay: PKB kinase assay (P33-labeled ATP, synthetic peptide substrate, filter plate). To be noted: PKBα enzyme (full length or kinase domain with pleckstrin domain deleted). The format is biochemical. An excerpt:
The kinase assay for evaluating PKB activity comprises active PKB enzymes, a PKB specific substrate, and P^33-labeled ATP. Two forms of PKBα enzymes were used, the full length PKBα and a kinase domain of PKBα with pleckstrin domain (amino acids 1-117) deleted. Both PKB enzymes were obtained from Upstate cell signaling solutions (Cat.# 14-276 and 14-341). The PKB substrate used is a synthetic peptide (ARKRERTYSFGHHA (SEQ ID NO: 1)) as described in Obata et al., J. Biol. Chem. 275 (46), 36108-36115 (2000). The phosphorylated substrate was captured by a phosphocellulose membrane filter plate (MILLIPORE) and measured by a Wallac Microbeta liquid scintillation counter (Perkin Elmer). Table 1 provides the IC50 values obtained for each of the examples with respect to PKBα.
For `N[C@H](CNc1nnc(-c2ccc3cnccc3c2)o1)Cc1ccc(C(F)(F)F)cc1` [Example 1, N-((S)-2-amino-3-(4-(trifluoromethyl)phenyl)propyl)-5-(isoquinolin-6-yl)-1,3,4-oxadiazol-2-amine], the half-inhibitory concentration (IC50) is 50 to 1000 nM. The compound `Cc1n[nH]c2ccc(-c3nnc(NC[C@@H](N)Cc4cccc(C(F)(F)F)c4)o3)cc12` [Example 2, N-((S)-2-amino-3-(3-(trifluoromethyl)phenyl)propyl)-5-(3-methyl-1H-indazol-5-yl)-1,3,4-oxadiazol-2-amine] gave an IC50 of 1000 to 10000 nM. To `N[C@H](CCc1nc(-c2ccc3cnccc3c2)no1)Cc1ccc(C(F)(F)F)cc1` [Example 3, (2R)-4-(3-(Isoquinolin-6-yl)-1,2,4-oxadiazol-5-yl)-1-(4-(trifluoromethyl)phenyl)butan-2-amine] belongs 1000 to 10000 nM; to `N[C@@H](Cc1ccc(C(F)(F)F)cc1)Cc1nc(-c2ccc3cnccc3c2)no1` [Example 4, (2S)-1-(3-(Isoquinolin-6-yl)-1,2,4-oxadiazol-5-yl)-3-(4-(trifluoromethyl)phenyl)propan-2-amine], 1000 to 10000 nM; to `N[C@@H](Cc1ccc(C(F)(F)F)cc1)c1nc(-c2ccc3cnccc3c2)no1` [Example 5, (1S)-1-(3-(Isoquinolin-6-yl)-1,2,4-oxadiazol-5-yl)-2-(4-(trifluoromethyl)phenyl)ethanamine], 1000 to 10000 nM. To `COc1ccc(CNc2ncc(-c3ccc4cnccc4c3)o2)cc1` [Example 6, N-(4-Methoxybenzyl)-5-(isoquinolin-6-yl)oxazol-2-amine] belongs 1000 to 10000 nM. As for `COc1ccc(CNc2ncc(-c3ccccc3)o2)cc1` [Example 7, N-(4-Methoxybenzyl)-5-phenyloxazol-2-amine], the figure is 1000 to 10000 nM; as for `COc1ccc(CNc2ncc(-c3ccncc3)o2)cc1` [Example 8, N-(4-Methoxybenzyl)-5-(pyridin-4-yl)oxazol-2-amine], 1000 to 10000 nM. The compound `Cc1n[nH]c2ccc(-c3cnc(NC[C@@H](N)Cc4ccc(C(F)(F)F)cc4)o3)cc12` [Example 9, N-((S)-2-Amino-3-(4-(trifluoromethyl)phenyl)propyl)-5-(3-methyl-1H-indazol-5-yl)oxazol-2-amine] returned an IC50 of 50 to 1000 nM. `Cc1n[nH]c2ccc(-c3cnc(NCc4ccccc4)o3)cc12` [Example 10, N-Benzyl-5-(3-methyl-1H-indazol-5-yl)oxazol-2-amine] displayed a 50% inhibitory concentration (IC50) of 1000 to 10000 nM. As for `N[C@H](CNc1cc(-c2ccc3cnccc3c2)no1)Cc1ccc(Cl)cc1` [Example 11, N-((S)-2-Amino-3-(4-chlorophenyl)propyl)-3-(isoquinolin-6-yl)isoxazol-5-amine], the figure is below 50 nM.

Take `N[C@H](CNc1cc(-c2ccc3cnccc3c2)no1)Cc1ccc(Br)cc1` [Example 12, N-((S)-2-Amino-3-(4-bromophenyl)propyl)-3-(isoquinolin-6-yl)isoxazol-5-amine]: the IC50 is below 50 nM. Compound `N[C@H](CNc1cc(-c2ccc3cnccc3c2)no1)Cc1cccc(C(F)(F)F)c1` [Example 13, N-((S)-2-Amino-3-(3-(trifluoromethyl)phenyl)propyl)-3-(isoquinolin-6-yl)isoxazol-5-amine] came in with an IC50 below 50 nM. As for `N[C@H](CNc1cc(-c2ccc3cnccc3c2)no1)Cc1ccc(C(F)(F)F)cc1` [Example 14, N-((S)-2-Amino-3-(4-(trifluoromethyl)phenyl)propyl)-3-(isoquinolin-6-yl)isoxazol-5-amine], the figure is below 50 nM. In turn, `N[C@H](CNc1cc(-c2ccc3cnccc3c2)no1)Cc1ccccc1` [Example 15, N-((S)-2-Amino-3-phenylpropyl)-3-(isoquinolin-6-yl)isoxazol-5-amine] registered an IC50 of 50 to 1000 nM.

`N[C@H](CNc1cc(-c2ccc3cnccc3c2)no1)Cc1cccc(Cl)c1` [Example 16, N-((S)-2-Amino-3-(3-chlorophenyl)propyl)-3-(isoquinolin-6-yl)isoxazol-5-amine] gave an IC50 below 50 nM.

For `Cc1c(-c2ccc3cnccc3c2)noc1NC[C@@H](N)Cc1ccccc1` [Example 17, N-((S)-2-Amino-3-phenylpropyl)-3-(isoquinolin-6-yl)-4-methylisoxazol-5-amine], the IC50 was 1000 to 10000 nM. With `N[C@H](CNc1cc(-c2ccc3cnccc3c2)no1)Cc1ccccc1Cl` [Example 18, N-((S)-2-Amino-3-(2-chlorophenyl)propyl)-3-(isoquinolin-6-yl)isoxazol-5-amine], the half-inhibitory concentration (IC50) was 50 to 1000 nM.

On to `N[C@H](CNc1cc(-c2ccc3cnccc3c2)no1)Cc1ccc2ccccc2c1` [Example 19, N-((S)-2-Amino-3-(naphthalen-2-yl)propyl)-3-(isoquinolin-6-yl)isoxazol-5-amine], for which the concentration for half-maximal inhibition (IC50) was 50 to 1000 nM. To `N[C@H](CNc1cc(-c2ccc3cnccc3c2)on1)Cc1ccc(C(F)(F)F)cc1` [Example 20, N-((S)-2-Amino-3-(4-(trifluoromethyl)phenyl)propyl)-5-(isoquinolin-6-yl)isoxazol-3-amine] belongs 50 to 1000 nM; to `N[C@H](CNc1cc(-c2ccc3cnccc3c2)on1)Cc1cccc(Cl)c1` [Example 21, N-((S)-2-Amino-3-(3-chlorophenyl)propyl)-5-(isoquinolin-6-yl)isoxazol-3-amine], 50 to 1000 nM; to `N[C@H](CNc1cc(-c2ccc3cnccc3c2)on1)Cc1ccc(Cl)cc1` [Example 22, N-((S)-2-Amino-3-(4-chlorophenyl)propyl)-5-(isoquinolin-6-yl)isoxazol-3-amine], 50 to 1000 nM. In turn, `N[C@H](CCc1cc(-c2ccc3cnccc3c2)no1)Cc1ccccc1` [Example 23, (2R)-4-(3-(isoquinolin-6-yl)isoxazol-5-yl)-1-phenylbutan-2-amine] displayed a half-maximal inhibitory concentration (IC50) of 1000 to 10000 nM. Turning to `N[C@H](CCc1cc(-c2ccc3cnccc3c2)no1)Cc1ccc(C(F)(F)F)cc1` [Example 24, (2R)-4-(3-(Isoquinolin-6-yl)isoxazol-5-yl)-1-(4-(trifluoromethyl)phenyl)butan-2-amine], the IC50 was below 50 nM.

On to `N[C@H](CCc1cc(-c2ccc3cnccc3c2)no1)Cc1ccc(Cl)cc1` [Example 25, (2R)-1-(4-Chlorophenyl)-4-(3-(isoquinolin-6-yl)isoxazol-5-yl)butan-2-amine], for which the IC50 is 50 to 1000 nM.

`N[C@H](CCc1cc(-c2ccc3cnccc3c2)no1)Cc1cccc(Cl)c1` [Example 26, (2R)-1-(3-chlorophenyl)-4-(3-(isoquinolin-6-yl)isoxazol-5-yl)butan-2-amine] returned an IC50 of 50 to 1000 nM. To `N[C@H](CCc1cc(-c2ccc3cnccc3c2)no1)Cc1ccccc1Cl` [Example 27, (2R)-1-(2-chlorophenyl)-4-(3-(isoquinolin-6-yl)isoxazol-5-yl)butan-2-amine] belongs 1000 to 10000 nM.

Turning to `N[C@@H](CCc1cc(-c2ccc3cnccc3c2)no1)Cc1ccc(C(F)(F)F)cc1` [Example 28, (2S)-4-(3-(Isoquinolin-6-yl)isoxazol-5-yl)-1-(4-(trifluoromethyl)phenyl)butan-2-amine], the half-inhibitory concentration (IC50) was in the range of 50 to 1000 nM. To `N[C@H](CCc1cc(-c2ccc3cnccc3c2)no1)Cc1cccc(C(F)(F)F)c1` [Example 29, (2R)-4-(3-(Isoquinolin-6-yl)isoxazol-5-yl)-1-(3-(trifluoromethyl)phenyl)butan-2-amine] belongs 50 to 1000 nM. To `N[C@H](CCc1cc(-c2ccc3cnccc3c2)no1)Cc1ccc(Cl)cc1Cl` [Example 30, (2R)-1-(2,4-Dichlorophenyl)-4-(3-(isoquinolin-6-yl)isoxazol-5-yl)butan-2-amine] belongs 50 to 1000 nM; to `N[C@H](CNc1onc(-c2ccc3cnccc3c2)c1Cc1ccccc1)Cc1ccccc1` [Example 31, N-((S)-2-amino-3-phenylpropyl)-4-benzyl-3-(isoquinolin-6-yl)isoxazol-5-amine], 1000 to 10000 nM; to `N[C@H](CNc1cc(-c2ccc3cnccc3c2)no1)Cc1c[nH]c2ccccc12` [Example 32, N-((S)-2-amino-3-(1H-indol-3-yl)propyl)-3-(isoquinolin-6-yl)isoxazol-5-amine], 50 to 1000 nM. Compound `N[C@H](CNc1onc(-c2ccc3cnccc3c2)c1Cc1ccccc1)Cc1c[nH]c2ccccc12` [Example 33, N-((S)-2-Amino-3-(1H-indol-3-yl)propyl)-4-benzyl-3-(isoquinolin-6-yl)isoxazol-5-amine] returned an IC50 of 50 to 1000 nM. As for `CC(C)Cc1c(-c2ccc3cnccc3c2)noc1NC[C@@H](N)Cc1c[nH]c2ccccc12` [Example 34, N-((S)-2-Amino-3-(1H-indol-3-yl)propyl)-4-isobutyl-3-(isoquinolin-6-yl)isoxazol-5-amine], the figure is 1000 to 10000 nM.

Turning to `NCCc1c(-c2ccc3cnccc3c2)noc1NC[C@@H](N)Cc1c[nH]c2ccccc12` [Example 35, N-((S)-2-Amino-3-(1H-indol-3-yl)propyl)-4-(2-aminoethyl)-3-(isoquinolin-6-yl)isoxazol-5-amine], the IC50 was 1000 to 10000 nM.

In the case of `NCCNc1onc(-c2ccc3cnccc3c2)c1Cc1ccccc1` [Example 36, N-(2-Aminoethyl)-4-benzyl-3-(isoquinolin-6-yl)isoxazol-5-amine], the IC50 is 1000 to 10000 nM. To `N[C@H](CCn1cc(-c2ccc3[nH]ncc3c2)nn1)Cc1ccc(C(F)(F)F)cc1` [Example 37, (2S)-4-(4-(1H-Indazol-5-yl)-1H-1,2,3-triazol-1-yl)-1-(4-(trifluoromethyl)phenyl)butan-2-amine] belongs 50 to 1000 nM; to `Cc1n[nH]c2ccc(-c3cn(CC[C@@H](N)Cc4ccc(C(F)(F)F)cc4)nn3)cc12` [Example 38, (2S)-4-(4-(3-Methyl-1H-indazol-5-yl)-1H-1,2,3-triazol-1-yl)-1-(4-(trifluoromethyl)phenyl)butan-2-amine], 50 to 1000 nM.
